# Test results reported in paper PMC12476894, “Identification of α‑Azacyclic Acetamide-Based Inhibitors of P. falciparum Na^+ Pump (PfATP4) with Fast-Killing Asexual Blood-Stage Antimalarial Activity by Phenotypic Screening” (ACS Infectious Diseases, 2025).
# Read-outs that look alike come from different tables or passages of the source.
# Legend:
# [1] = test system: P. falciparum 3D7 parasites (Pf3D7); test: 72 h SYBR Green growth inhibition, ABS P. falciparum 3D7 (Phillips Lab); type: cell-based, Plasmodium falciparum; conditions: Plasmodium falciparum, 3D7; 72 h SYBR Green assay; mean ± SEM (n)
# [2] = test system: P. falciparum Dd2 (PfDd2) parasites; test: 72 h SYBR Green growth inhibition, ABS P. falciparum Dd2 (Phillips Lab); type: cell-based, Plasmodium falciparum; conditions: Plasmodium falciparum
# [3] = test system: P. falciparum NF54^luc parasites; test: 72 h SYBR Green growth inhibition, PfNF54^luc; type: cell-based; conditions: Plasmodium falciparum, 72 h SYBR Green assay, read-out: PfNF54^luc EC50
# [4] = test system: P. falciparum NF54^luc parasites; test: Luciferase reporter (LR) / BRRoK assay, PfNF54^luc; type: cell-based, Plasmodium falciparum; conditions: Plasmodium falciparum, NF54, Hec50; luciferase reporter, 6 h
# PfD10 attB = test: 72 h SYBR Green growth inhibition, PfD10 attB; type: cell-based; conditions: Plasmodium falciparum; 72 h SYBR Green assay
# PfD10 attB + yDHODH = test: 72 h SYBR Green growth inhibition, strain expressing yeast DHODH; type: cell-based; conditions: Plasmodium falciparum, read-out: PfD10 attB + yDHODH EC50, 72 h SYBR Green assay
# in vitro = in vitro ADME; conditions: human liver microsomes, 1 µM compound, 0.4 mg/mL protein
# [5] = test system: Dd2 PfATP4^P412L mutant clones; test: 72 h SYBR Green growth inhibition, 2-selected Dd2 clones with PfATP4 P412L (Phillips Lab); type: cell-based, Plasmodium falciparum; conditions: for EC50: Plasmodium falciparum
# Procedure: (§1) To confirm the MOA for the α-azacyclic acetamides against P. falciparum and to obtain potential information about whether or not they bind PfATP4 at an overlapping site with that of KAE609, we undertook resistance selections using PfDd2 parasites using the published cycling drug selection method. , α-Azacyclic acetamides 2 and 3 were chosen as representative examples of the pyrrole- and indole-based series, respectively. […] Additional cycles were performed at 20 × EC50, until resistant parasites were detected based on a fold change in EC50 compared to the parental clonal Dd2 line (Table S3). Resistant parasites were detected in the 2-selections in all 4 flasks after 4 pulses and for 3-selections in 3 flasks after 5 pulses. Clonal lines were generated from each flask, and one clone per flask was selected for WGS and EC50 determination (Tables S4 and S5). WGS analysis identified two single point mutations in PfATP4 that were not present in the original clonal Dd2 parasite line (Tables and S4). P412L was found in three of four flasks containing 2-selected resistance clones, and F917L was identified in all three flasks containing 3-selected clones and in the fourth flask containing 2-selected clones (Table S4). PfATP4 mutations identified by the WGS analysis in parasite lines were verified by PCR of the pfatp4 gene, followed by Sanger sequencing (Figures S5, S6 and Table S6). An additional protein coding gene (ribosomal protein S8e) was mutated in the 2-selections. However, this mutation was identified in only one of four sequenced clones and is therefore unlikely to be related to resistance to 2 (Figure S7). All three resistant clones derived from the 3-selections harbored an identical mutation in a gene (pfcpu) encoding a conserved protein of unknown function, which was absent in the parental line (Figure S8).
# (§2) ABS P. falciparum 3D7, Dd2 or PfNF54^luc parasites (BEI resources) were cultured in RPMI 1640 medium (Millipore Sigma), supplemented with 25 mM HEPES, 0.5% Albumax-I (Thermo Scientific), 23 mM sodium bicarbonate, 92 μM hypoxanthine, and 10 μg/mL gentamicin sulfate at 37 °C, 5% CO2, using deidentified O^+ red blood cells (BioIVT) as previously described. − Growth inhibition assays were conducted in 96 well plate format using the SYBR Green or luciferase reporter assay depending on the strain with modifications as described , (see Supporting Information for a detailed description). Details for the luciferase reporter assay are described below under the BRRoK assay section.
# (§3) EC50 and CC50 values were determined by nonlinear regression performed in GraphPad Prism Version 10. Unless otherwise specified, data were fitted to the log(inhibitor) vs response–variable slope with four parameters equation. […] For mutant cell lines and compound combinations where bottom plateau of zero growth was not reached, the bottom of the curve was defined at 0% based on background values obtained for parental Dd2 from the same study.
# (§4) Resistant Dd2 parasites were selected using a high-pressure intermittent selection protocol using a previously described method. Selections were set up using 4 flasks per compound starting with approximately 3 × 10^9 parasites per flask (80 mL per flask, 4% hematocrit, 3% parasitemia at the beginning of each pulse, mostly ring-stage parasites via previous sorbitol synchronization. Pulse 1 and 2 (48 h) were conducted at 10xEC50, and subsequent pulses were conducted at 20xEC50. Parasites cleared within 48 h under these conditions. 3-Selections used a total of 4 pulses, while 2-selections required 5 pulses before resistant parasites emerged (Table S3). Culture media was replenished daily for a week after each pulse, then every 2 days with weekly replenishment of blood. Cultures were monitored by microscopy until recrudescence. Clonal parasites were obtained from each flask by limiting dilution and maintained in drug free RPMI-1640 media prior to being analyzed for EC50 shifts. […]
# [6] = test system: Dd2 PfATP4^F917L mutant clones; test: 72 h SYBR Green growth inhibition, 2- or 3-selected Dd2 clones with PfATP4 F917L (Phillips Lab); type: cell-based, Plasmodium falciparum; conditions: for EC50: Plasmodium falciparum
# Procedure: as §1, §2, §3, §4
# PfDd2 parasites = test: Resistance selection by drug pulses, time to recrudescence; type: cell-based, Plasmodium falciparum
# Procedure: as §1
# Resistant Dd2 parasites were selected using a high-pressure intermittent selection protocol using a previously described method. Selections were set up using 4 flasks per compound starting with approximately 3 × 10^9 parasites per flask (80 mL per flask, 4% hematocrit, 3% parasitemia at the beginning of each pulse, mostly ring-stage parasites via previous sorbitol synchronization. Pulse 1 and 2 (48 h) were conducted at 10xEC50, and subsequent pulses were conducted at 20xEC50. Parasites cleared within 48 h under these conditions. 3-Selections used a total of 4 pulses, while 2-selections required 5 pulses before resistant parasites emerged (Table S3). Culture media was replenished daily for a week after each pulse, then every 2 days with weekly replenishment of blood. Cultures were monitored by microscopy until recrudescence. Clonal parasites were obtained from each flask by limiting dilution and maintained in drug free RPMI-1640 media prior to being analyzed for EC50 shifts. Established clonal lines were aliquoted and stored at −80 °C after suspension in Glycerolyte 57 solution (Baxter Cat no 4A7831).
# [7] = test system: Pf3D7 trophozoites, pHcyt (PfATP4 and other plasma membrane transporters); test: P. falciparum pH fingerprint assay; conditions: 5 μM, compared with KAE609 50 nM
# [8] = DD2, 72 h, read-out: PfDd2 EC50
# [9] = DD2, read-out: EC50, 2-resistant Flask 2 Clone F9
# [10] = DD2, read-out: EC50, 2-resistant Flask 3 Clone F5
# [11] = DD2, read-out: EC50, 2-resistant Flask 4 Clone E10
# [12] = DD2, read-out: EC50, 2-selected flask #3 clone F5
# [13] = DD2, read-out: EC50, 2-resistant Flask 1 Clone B6
# [14] = DD2, read-out: EC50, 3-resistant Flask 2 Clone D10
# [15] = DD2, read-out: EC50, 3-resistant Flask 3 Clone D8
# [16] = DD2, read-out: EC50, 3-resistant Flask 4 Clone B3
# [17] = DD2, read-out: EC50, 3-selected flask #3 clone D8
Structure (SMILES),EC50 [1],"EC50 [2, 8]",EC50 [3],EC50 [4],EC50 (PfD10 attB),EC50 (PfD10 attB + yDHODH),microsomal CLint (in vitro),"EC50 [5, 9]","EC50 [5, 10]","EC50 [5, 11]","EC50 [5, 12]","Fold EC50 change compared to WT Dd2, 2-selected flask #3 clone F5 [5]","EC50 [6, 13]","EC50 [6, 14]","EC50 [6, 15]","EC50 [6, 16]","EC50 [6, 17]","Fold EC50 change compared to WT Dd2, 3-selected flask #3 clone D8 [6]","Time to Recrudescence (PfDd2 parasites; Pulse 1, 10×EC50, Flasks #1-4)","Time to Recrudescence (PfDd2 parasites; Pulse 2, 10×EC50, Flasks #1-4)",also measured
"Cc1nn(CCNC(=O)Cn2c(C)c(C#N)c3ccccc32)c(C)c1Cl [compound 3, N-(2-(4-chloro-3,5-dimethyl-1H-pyrazol-1-yl)ethyl)-2-(3-cyano-2-methyl-1H-indol-1-yl)acetamide]",1100 ± 71 nM,1100 ± 72 nM,940 ± 2.7 nM,1600 ± 71 nM,1300 nM,930 nM,> 866 µL/min/mg,> 10000 nM,> 10000 nM,> 10000 nM,11000 ± 1800 nM,10 fold,> 10000 nM,> 10000 nM,> 10000 nM,> 10000 nM,28000 ± 1600 nM,25 fold,5 days,4 days,"EC50 ([2]; DD2, read-out: EC50, Dd2 Parent (clone G9)): 990 nM; Time to Recrudescence (PfDd2 parasites; Pulse 3, 20×EC50, Flasks #1-4): 4 days; Time to Recrudescence (PfDd2 parasites; Pulse 4, 20×EC50, Flask #1): 6 days; Time to Recrudescence (PfDd2 parasites; Pulse 4, 20×EC50, Flasks 2 - 4): 2 days; pH fingerprint, +Glucose + CMA condition (in words) [7]: submaximal inhibition"
"Cc1ccnc(NC(=O)Cn2cccc2-c2nc(-c3ccccc3)cs2)c1 [compound 2, N-(4-methylpyridin-2-yl)-2-(2-(4-phenylthiazol-2-yl)-1H-pyrrol-1-yl)acetamide]",830 ± 71 nM,830 ± 48 nM,720 ± 19 nM,1100 ± 90 nM,1200 nM,990 nM,> 866 µL/min/mg,> 10000 nM,> 10000 nM,> 10000 nM,29000 ± 6100 nM,35 fold,9600 ± 2000 nM,> 10000 nM,> 10000 nM,> 10000 nM,14000 ± 780 nM,17 fold,8 days,6 days,"EC50 ([2]; DD2, read-out: EC50, Dd2 Parent (clone B8)): 780 nM; Time to Recrudescence (PfDd2 parasites; Pulse 3, 20×EC50, Flasks #1-4): 7 days; Time to Recrudescence (PfDd2 parasites; Pulse 4, 20×EC50, Flasks #1-4): 3 days; Time to Recrudescence (PfDd2 parasites; Pulse 5, 20×EC50, Flasks #1-4, after pulse): 2 days; pH fingerprint, +Glucose + CMA condition (in words) [7]: maximal/near-maximal inhibition of PfATP4"
